Measured values from patent publication US11173145B2, “Compounds useful as inhibitors of indoleamine 2,3-dioxygenase and/or tryptophan dioxygenase” (Board of Regents, The University of Texas System, priority 2017, dated 2021).

target: T1, IDO1 (Homo sapiens, UniProt P14902); assay: IDO1 cell-based assay (HeLa cells, IFNgamma-induced, N-formylkynurenine/L-tryptophan by RFMS); conditions: 10 ng/mL IFNgamma, 24 hours
T1 construct: endogenous in cells; host or cells: HeLa cells (ATCC), IFNgamma-induced
Procedure, shortened: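 N-formylkynurenine and tryptophan peak areas in media measured by RFMS (C18, isocratic, d-Trp standard), giving IC50 values by regression. Source: HeLa cells incubated 24 h with IFNgamma (10 ng/mL) plus test compound at 0.5% DMSO; parallel CellTiter-Glo viability read.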

T1 sequence (P14902 whole entry): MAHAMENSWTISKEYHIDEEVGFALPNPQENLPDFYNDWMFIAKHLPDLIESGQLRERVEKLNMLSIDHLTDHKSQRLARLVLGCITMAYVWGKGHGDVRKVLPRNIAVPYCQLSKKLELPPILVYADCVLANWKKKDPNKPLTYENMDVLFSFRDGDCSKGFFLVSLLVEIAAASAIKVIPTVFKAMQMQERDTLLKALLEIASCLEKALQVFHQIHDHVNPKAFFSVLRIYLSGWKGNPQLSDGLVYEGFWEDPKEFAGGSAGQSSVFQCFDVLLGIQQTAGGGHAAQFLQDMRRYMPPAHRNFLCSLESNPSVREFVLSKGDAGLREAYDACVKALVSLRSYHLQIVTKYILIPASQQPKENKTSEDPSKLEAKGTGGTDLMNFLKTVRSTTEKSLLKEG

| IC50 [µM] | Structure (SMILES) |
| --- | --- |
| < 0.2 | CC[C@@H](NC(=O)c1ccc(Cl)cc1)[C@H]1[C@@H]2C[C@@H](n3cc(C(=O)OC)cn3)C[C@@H]21 [Compound 326, methyl 1-((1R,3S,5S,6r)-6-((R)-1-(4-chlorobenzamido)propyl)bicyclo[3.1.0]hexan-3-yl)-1H-pyrazole-4-carboxylate] |
| < 0.2 | CCOC(=O)CC(NC(=O)c1ccc(Cl)cc1)[C@H]1[C@@H]2C[C@@H](Oc3cnnc4ccccc34)C[C@@H]21 (stereo partly drawn) [Compound 84, ethyl 3-(4-chlorobenzamido)-3-((1R,3s,5S,6r)-3-(cinnolin-4-yloxy)bicyclo[3.1.0]hexan-6-yl)propanoate] |
| 0.2 to 2 | CC(NC(=O)c1ccc(C#N)cc1)[C@H]1[C@@H]2C[C@@H](n3cc(C4CC4)nn3)C[C@@H]21 (stereo partly drawn) [Compound 129, 4-cyano-N-(1-((1R,3s,5S,6r)-3-(4-cyclopropyl-1H-1,2,3-triazol-1-yl)bicyclo[3.1.0]hexan-6-yl)ethyl)benzamide] |
| > 5 | CCC(NC(=O)c1ccc(Cl)cc1)[C@H]1[C@@H]2C[C@@H](NC(=O)N3CCNCC3)C[C@@H]21 (stereo partly drawn) [Compound 156, N-((1R,3s,5S,6r)-6-(1-(4-chlorobenzamido)propyl)bicyclo[3.1.0]hexan-3-yl)piperazine-1-carboxamide] |
| 0.2 to 2 | CC[C@@H](NC(=O)c1ccc(Cl)cc1)[C@H]1[C@@H]2C[C@@H](n3c(C(F)(F)F)nc4ccc(F)cc43)C[C@@H]21 [Compound 276, 4-chloro-N-((R)-1-((1R,3S,5S,6r)-3-(6-fluoro-2-(trifluoromethyl)-1H-benzo[d]imidazol-1-yl)bicyclo[3.1.0]hexan-6-yl)propyl)benzamide] |
| < 0.2 | CCC(NC(=O)c1ccc(Cl)cc1)C1C2CC(Oc3ncnc4cccc(F)c34)CC21 [Compound 37, 4-chloro-N-(1-((1R,3s,5S,6r)-3-((5-fluoroquinazolin-4-yl)oxy)bicyclo[3.1.0]hexan-6-yl)propyl)benzamide] |
| < 0.2 | CC[C@@H](NC(=O)c1ccc(C#N)cc1)[C@H]1[C@@H]2CC(N=[N+]=[N-])C[C@@H]21 (stereo partly drawn) [Compound 283, N-((1R)-1-((1R,5S,6r)-3-azidobicyclo[3.1.0]hexan-6-yl)propyl)-4-cyanobenzamide] |
| < 0.2 | C=Cc1cnn([C@@H]2C[C@@H]3[C@H](C2)[C@H]3[C@@H](CC)NC(=O)c2ccc(Cl)cc2)c1 [Compound 305, 4-chloro-N-((R)-1-((1R,3S,5S,6r)-3-(4-vinyl-1H-pyrazol-1-yl)bicyclo[3.1.0]hexan-6-yl)propyl)benzamide] |
| < 0.2 | CC[C@@H](NC(=O)c1ccc(C)nc1)[C@H]1[C@@H]2C[C@@H](n3cnc4cc(F)c(F)cc43)C[C@@H]21 [Compound 311, N-((R)-1-((1R,3S,5S,6r)-3-(5,6-difluoro-1H-benzo[d]imidazol-1-yl)bicyclo[3.1.0]hexan-6-yl)propyl)-6-methylnicotinamide] |
| 2 to 5 | C[C@@H](NC(=O)c1ccc(Cl)cc1)[C@H]1[C@@H]2C[C@@H](Oc3cc(Cl)ccc3C(=O)O)C[C@@H]21 [Compound 341, 4-chloro-2-(((1R,3S,5S,6r)-6-((R)-1-(4-chlorobenzamido)ethyl)bicyclo[3.1.0]hexan-3-yl)oxy)benzoic acid] |
| < 0.2 | CCC(NC(=O)c1ccc(Cl)cc1)[C@H]1[C@@H]2C[C@@H](Oc3ncncc3F)C[C@@H]21 (stereo partly drawn) [Compound 54, 4-chloro-N-(1-((1R,3s,5S,6r)-3-((5-fluoropyrimidin-4-yl)oxy)bicyclo[3.1.0]hexan-6-yl)propyl)benzamide] |
| < 0.2 | CCC(NC(=O)c1ccc(Cl)cc1)[C@H]1[C@@H]2C[C@@H](Oc3ncnc4cc(Cl)ccc34)C[C@@H]21 (stereo partly drawn) [Compound 21, 4-chloro-N-(1-((1R,3s,5S,6r)-3-((7-chloroquinazolin-4-yl)oxy)bicyclo[3.1.0]hexan-6-yl)propyl)benzamide] |
| < 0.2 | CCOC(=O)C(C(=O)OCC)[C@@H]1C[C@@H]2[C@H](C1)[C@H]2[C@@H](CC)NC(=O)c1ccc(Cl)cc1 [Compound 290, diethyl 2-((1R,3S,5S,6r)-6-((R)-1-(4-chlorobenzamido)propyl)bicyclo[3.1.0]hexan-3-yl)malonate] |
| < 0.2 | CCC(NC(=O)c1ccc(Cl)cc1)[C@H]1[C@@H]2C[C@@H](Oc3ncnc4cc(F)ccc34)C[C@@H]21 (stereo partly drawn) [Compound 35, 4-chloro-N-(1-((1R,3s,5S,6r)-3-((7-fluoroquinazolin-4-yl)oxy)bicyclo[3.1.0]hexan-6-yl)propyl)benzamide] |
| < 0.2 | CC[C@@H](NC(=O)c1ccc(Cl)cc1)[C@H]1[C@@H]2C[C@H](c3cncc(C4CC4)c3)C[C@@H]21 [Compound 303, 4-chloro-N-((R)-1-((1R,3R,5S,6r)-3-(5-cyclopropylpyridin-3-yl)bicyclo[3.1.0]hexan-6-yl)propyl)benzamide] |
| > 5 | CCC(NC(=O)c1ccc(Cl)cc1)[C@H]1[C@@H]2C[C@@H](n3cc(C(N)=O)nn3)C[C@@H]21 (stereo partly drawn) [Compound 95, 1-((1R,3s,5S,6r)-6-(1-(4-chlorobenzamido)propyl)bicyclo[3.1.0]hexan-3-yl)-1H-1,2,3-triazole-4-carboxamide] |
| < 0.2 | Cc1cccnc1O[C@@H]1C[C@@H]2[C@H](C1)[C@H]2C(C)NC(=O)c1ccc(Cl)cc1 (stereo partly drawn) [Compound 71, 4-chloro-N-(1-((1R,3s,5S,6r)-3-((3-methylpyridin-2-yl)oxy)bicyclo[3.1.0]hexan-6-yl)ethyl)benzamide] |
| 0.2 to 2 | CCC(NC(=O)c1ccc(Cl)cc1)[C@H]1[C@@H]2C[C@@H](NS(=O)(=O)C3(C)CC3)C[C@@H]21 (stereo partly drawn) [Compound 160, 4-chloro-N-(1-((1R,3s,5S,6r)-3-((1-methylcyclopropane)-1-sulfonamido)bicyclo[3.1.0]hexan-6-yl)propyl)benzamide] |

Second part, the compound before the results:

| Structure (SMILES) | IC50 [µM] |
| --- | --- |
| CC(NC(=O)c1ccc(Cl)cc1)[C@H]1[C@@H]2C[C@@H](Oc3ncnc4ccc(F)cc34)C[C@@H]21 (stereo partly drawn) [Compound 13, 4-chloro-N-(1-((1R,3s,5S,6r)-3-((6-fluoroquinazolin-4-yl)oxy)bicyclo[3.1.0]hexan-6-yl)ethyl)benzamide] | < 0.2 |
| CC(NC(=O)c1ccc(C#N)cc1)[C@H]1[C@@H]2C[C@@H](n3ncc(=O)c4ccccc43)C[C@@H]21 (stereo partly drawn) [Compound 136, 4-cyano-N-(1-((1R,3s,5S,6r)-3-(4-oxocinnolin-1(4H)-yl)bicyclo[3.1.0]hexan-6-yl)ethyl)benzamide] | 0.2 to 2 |
| Cc1ccc(C(=O)NC[C@@H]2[C@H]3C[C@H](n4cnc5cc(F)c(F)cc54)C[C@@H]23)cn1 [Compound 317, N-(((1R,3s,5S,6r)-3-(5,6-difluoro-1H-benzo[d]imidazol-1-yl)bicyclo[3.1.0]hexan-6-yl)methyl)-6-methylnicotinamide] | 0.2 to 2 |
| O=C(Cc1ccc(Cl)cc1)N[C@H]1[C@@H]2C[C@@H](n3cnc4ccc(F)cc4c3=O)C[C@@H]21 [Compound 62, 2-(4-chlorophenyl)-N-((1R,3s,5S,6r)-3-(6-fluoro-4-oxoquinazolin-3(4H)-yl)bicyclo[3.1.0]hexan-6-yl)acetamide] | 2 to 5 |
| CC(NC(=O)c1ccc(C#N)cc1)C1[C@H]2CC(O)C[C@@H]12 (stereo partly drawn) [Compound 106, 4-cyano-N-(1-((1R,3s,5S,6r)-3-hydroxybicyclo[3.1.0]hexan-6-yl)ethyl)benzamide] | > 5 |
| O=C(Cc1ccc(Cl)cc1)N[C@H]1[C@@H]2C[C@@H](n3ncc(=O)c4ccccc43)C[C@@H]21 [Compound 85, 2-(4-chlorophenyl)-N-((1R,3s,5S,6r)-3-(4-oxocinnolin-1(4H)-yl)bicyclo[3.1.0]hexan-6-yl)acetamide] | > 5 |
| CC(NC(=O)c1ccc(C#N)cc1)C1[C@H]2CC(O)C[C@@H]12 (stereo partly drawn) [Compound 105, 4-cyano-N-(1-((1R,3r,5S,6r)-3-hydroxybicyclo[3.1.0]hexan-6-yl)ethyl)benzamide] | > 5 |
| O=C(NC[C@@H]1[C@H]2C[C@@H](Oc3ccc4nccc(Cl)c4c3)C[C@@H]12)c1ccc(Cl)cc1 [Compound 33, 4-chloro-N-(((1R,3r,5S,6r)-3-((4-chloroquinolin-6-yl)oxy)bicyclo[3.1.0]hexan-6-yl)methyl)benzamide] | 0.2 to 2 |
| CCC(NC(=O)c1ccc(Cl)cc1)C1C2CC(Oc3cc(C(F)(F)F)nc4ccc(F)cc34)CC21 [Compound 22, 4-chloro-N-(1-((1R,3s,5S,6r)-3-((6-fluoro-2-(trifluoromethyl)quinolin-4-yl)oxy)bicyclo[3.1.0]hexan-6-yl)propyl)benzamide] | < 0.2 |
| Clc1ccc(-c2nnc(C3C4CC(Oc5ccnc6ccccc56)CC43)o2)cc1 (centres unmarked) [Compound 11, 2-(4-chlorophenyl)-5-(3-(quinolin-4-yloxy)bicyclo[3.1.0]hexan-6-yl)-1,3,4-oxadiazole] | > 5 |
| CC[C@@H](NC(=O)c1ccnc(C)c1)[C@H]1[C@@H]2C[C@@H](n3cnc4cc(F)c(F)cc43)C[C@@H]21 [Compound 308, N-((R)-1-((1R,3S,5S,6r)-3-(5,6-difluoro-1H-benzo[d]imidazol-1-yl)bicyclo[3.1.0]hexan-6-yl)propyl)-2-methylisonicotinamide] | 0.2 to 2 |
| O=C(NC[C@@H]1[C@H]2C[C@H](n3cnc4cc(F)c(F)cc43)C[C@@H]12)c1cccc(F)c1 [Compound 320, N-(((1R,3s,5S,6r)-3-(5,6-difluoro-1H-benzo[d]imidazol-1-yl)bicyclo[3.1.0]hexan-6-yl)methyl)-3-fluorobenzamide] | 0.2 to 2 |
| COc1ccc(C(=O)NC(C)[C@H]2[C@@H]3C[C@@H](O)C[C@@H]32)cn1 (stereo partly drawn) [Compound 128, N-(1-((1R,3s,5S,6r)-3-hydroxybicyclo[3.1.0]hexan-6-yl)ethyl)-6-methoxynicotinamide] | > 5 |
| CC[C@@H](NC(=O)NC1CC1)[C@H]1[C@@H]2C[C@@H](n3cnc4cc(F)c(F)cc43)C[C@@H]21 [Compound 357, 1-cyclopropyl-3-((R)-1-((1R,3S,5S,6r)-3-(5,6-difluoro-1H-benzo[d]imidazol-1-yl)bicyclo[3.1.0]hexan-6-yl)propyl)urea] | 0.2 to 2 |
